The term Ki denotes the equilibrium dissociation constant of an inhibitor or competing ligand from its target. High values mean a looser hold on the target, low ones a stronger hold on the target. By inhibition is commonly meant the percentage by which the read-out fell short of the control.

A value given as a limit tells only on which side of the number the result lay.

Assay [1] deals with T1, Adenosine receptor A1 (Bos taurus, UniProt P28190).
T1 sequence (P28190 whole entry): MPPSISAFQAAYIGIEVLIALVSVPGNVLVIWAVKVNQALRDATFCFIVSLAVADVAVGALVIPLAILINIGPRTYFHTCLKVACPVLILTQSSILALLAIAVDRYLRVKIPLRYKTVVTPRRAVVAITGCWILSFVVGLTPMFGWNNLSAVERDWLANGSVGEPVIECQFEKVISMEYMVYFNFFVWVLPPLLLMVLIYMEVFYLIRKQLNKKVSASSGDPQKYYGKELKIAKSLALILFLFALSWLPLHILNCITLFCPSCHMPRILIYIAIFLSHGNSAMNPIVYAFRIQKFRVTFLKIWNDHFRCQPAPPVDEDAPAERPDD
The assay is described as follows: Displacement of [3H]CHA from adenosine A1 receptor in bovine cerebral cortical membranes. The assay is classed as cell membranes. On the technique in general: Displacement assays read how much labelled ligand stays bound in the presence of the test substance.

Another assay concerns the target T2, Adenosine receptor A3 (Homo sapiens, UniProt P0DMS8).
T2 sequence (P0DMS8 whole entry): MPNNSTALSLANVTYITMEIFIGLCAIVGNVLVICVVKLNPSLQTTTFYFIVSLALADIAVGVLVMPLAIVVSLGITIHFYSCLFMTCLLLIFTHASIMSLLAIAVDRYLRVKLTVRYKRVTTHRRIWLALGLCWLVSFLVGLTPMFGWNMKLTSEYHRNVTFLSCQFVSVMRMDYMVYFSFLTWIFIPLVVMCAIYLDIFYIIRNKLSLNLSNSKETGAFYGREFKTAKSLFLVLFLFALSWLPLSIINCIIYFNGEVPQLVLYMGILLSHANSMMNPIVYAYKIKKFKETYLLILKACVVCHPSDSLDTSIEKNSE
Kind of assay: Displacement of [125I]AB-MECA from human adenosine A3 receptor expressed in CHO cells. It is filed as cell-based.

A short description of assay [2]: Selectivity for human adenosine A3 receptor over human adenosine A2A receptor.
The target in assay [3] is T3, Adenosine receptor A1 (Homo sapiens, UniProt P30542).
T3 sequence (P30542 whole entry): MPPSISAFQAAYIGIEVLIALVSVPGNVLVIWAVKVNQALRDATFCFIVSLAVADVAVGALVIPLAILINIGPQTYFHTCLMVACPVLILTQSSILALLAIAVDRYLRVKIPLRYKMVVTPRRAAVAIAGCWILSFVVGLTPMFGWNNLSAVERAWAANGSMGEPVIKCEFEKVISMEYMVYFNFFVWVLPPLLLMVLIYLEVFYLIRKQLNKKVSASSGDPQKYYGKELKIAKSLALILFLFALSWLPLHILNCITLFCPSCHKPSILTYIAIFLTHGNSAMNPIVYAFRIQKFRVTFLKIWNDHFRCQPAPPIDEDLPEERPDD
Kind of assay: Displacement of [3H]CHA from cloned human adenosine A1 receptor expressed in CHO cells. It is filed as cell-based.

For assay [4], the target named is Adenosine receptor A2a (Bos taurus). Kind of assay: Displacement of [3H]CGS 21680 from adenosine A2A receptor in bovine striatal membranes.
Assay [5] has as its target Adenosine receptors; A1 & A3 (Homo sapiens) (UniProt P30542+P0DMS8). The assay is described as follows: Selectivity for human adenosine A3 receptor over human adenosine A1 receptor. It is filed as protein assay.
In assay [6] the target is Adenosine receptor A2a (Homo sapiens) (UniProt P29274). The assay is described as follows: Percentage inhibition of [3H]NECA binding to cloned human adenosine A2A receptor expressed in CHO cells at 10 uM. The assay is classed as cell-based.
The target of assay [7] is T4, Adenosine receptor A1 (Bos taurus) (UniProt P28190).
T4 sequence (whole entry): T1 sequence (P28190 whole entry)
The assay is described as follows: Percentage inhibition of [3H]CHA binding to adenosine A1 receptor in bovine cerebral cortical membranes at 10 uM. The assay is classed as cell membranes.

The target in assay [8] is T5, Adenosine receptor A3 (Homo sapiens) (UniProt P0DMS8).
T5 sequence (whole entry): T2 sequence (P0DMS8 whole entry)
The assay is described as follows: Percentage inhibition of [125I]AB-MECA binding to human adenosine A3 receptor expressed in CHO cells at 1 uM. The assay is classed as cell-based.

In assay [9] the test system is Adenosine receptor A2a (Bos taurus). The assay is described as follows: Percentage inhibition of [3H]CGS 21680 binding to adenosine A2A receptor in bovine striatal membranes at 20 uM. The settings on record: Striatum, Membrane.

Adenosine receptor A2a (Homo sapiens), sequence (P29274 whole entry): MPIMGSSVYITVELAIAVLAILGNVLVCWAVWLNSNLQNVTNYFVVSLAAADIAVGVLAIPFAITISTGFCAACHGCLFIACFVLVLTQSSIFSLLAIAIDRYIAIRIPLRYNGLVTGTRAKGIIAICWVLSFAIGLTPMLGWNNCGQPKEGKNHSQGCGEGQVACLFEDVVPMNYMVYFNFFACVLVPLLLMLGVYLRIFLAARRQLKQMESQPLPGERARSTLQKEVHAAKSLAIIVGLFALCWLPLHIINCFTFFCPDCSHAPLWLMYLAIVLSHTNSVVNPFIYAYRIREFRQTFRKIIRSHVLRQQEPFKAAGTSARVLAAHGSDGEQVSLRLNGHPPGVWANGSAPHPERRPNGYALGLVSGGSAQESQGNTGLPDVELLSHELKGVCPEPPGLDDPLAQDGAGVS

Take `Oc1nc2ccc(Cl)cc2n2nc(-c3ccco3)nc12`: the Ki on Adenosine receptor A1 [1] came out at 3.66 µM; on Adenosine receptor A3 it was 0.006 µM; on Adenosine receptor A1 [3] it was 2.74 µM; in [4], 5.16 µM. In addition, the Ratio Ki in assay [2] was over 1700; in assay [5], 457. The inhibition in [6] amounted to 33%.

Turning to `CCOC(=O)c1nc2c(O)nc3ccc([N+](=O)[O-])cc3n2n1`, the inhibition in [7] amounted to 58%; in assay [8] it was 0%; in assay [9], 7.4%.

(Values after ChEMBL document CHEMBL1140434, “1,2,4-Triazolo[1,5-a]quinoxaline as a versatile tool for the design of selective human A3 adenosine receptor antagonists: synthesis, biological evaluation, and molecular modeling studies of 2-(hetero)aryl- and 2-carboxy-substituted derivatives” (J Med Chem, 2005).)
